From ChEMBL document CHEMBL2203027, “Lanostanoids from fungi: a group of potential anticancer compounds” (J Nat Prod, 2012)
≈ marks a conversion by molar mass, not a printed value. Blank lines part the entries; values can stand above or below the molecule they belong to.

Assays:
DU-145 = assay: Cytotoxicity against human DU145 cells; assay type: functional, cell-based
HeLa = assay: Cytotoxicity against human HeLa cells; assay type: functional, cell-based; settings: Homo sapiens, HeLa
[1] = Inhibition of rat microsomal 5-alpha reductase assessed as inhibition of conversion of [4-14C]testosterone to [4-14C] dihydrotestosterone after 10 mins
[2] = Cytotoxicity against human 95-D cells; assay type: functional, cell-based
NUGC-3 = assay: Cytotoxicity against human NUGC3 cells; assay type: functional, cell-based
[3] = molecular target: T1, DNA topoisomerase 2-alpha (Homo sapiens, UniProt P11388); assay: Inhibition of topoisomerase 2
T1 sequence (P11388 whole entry): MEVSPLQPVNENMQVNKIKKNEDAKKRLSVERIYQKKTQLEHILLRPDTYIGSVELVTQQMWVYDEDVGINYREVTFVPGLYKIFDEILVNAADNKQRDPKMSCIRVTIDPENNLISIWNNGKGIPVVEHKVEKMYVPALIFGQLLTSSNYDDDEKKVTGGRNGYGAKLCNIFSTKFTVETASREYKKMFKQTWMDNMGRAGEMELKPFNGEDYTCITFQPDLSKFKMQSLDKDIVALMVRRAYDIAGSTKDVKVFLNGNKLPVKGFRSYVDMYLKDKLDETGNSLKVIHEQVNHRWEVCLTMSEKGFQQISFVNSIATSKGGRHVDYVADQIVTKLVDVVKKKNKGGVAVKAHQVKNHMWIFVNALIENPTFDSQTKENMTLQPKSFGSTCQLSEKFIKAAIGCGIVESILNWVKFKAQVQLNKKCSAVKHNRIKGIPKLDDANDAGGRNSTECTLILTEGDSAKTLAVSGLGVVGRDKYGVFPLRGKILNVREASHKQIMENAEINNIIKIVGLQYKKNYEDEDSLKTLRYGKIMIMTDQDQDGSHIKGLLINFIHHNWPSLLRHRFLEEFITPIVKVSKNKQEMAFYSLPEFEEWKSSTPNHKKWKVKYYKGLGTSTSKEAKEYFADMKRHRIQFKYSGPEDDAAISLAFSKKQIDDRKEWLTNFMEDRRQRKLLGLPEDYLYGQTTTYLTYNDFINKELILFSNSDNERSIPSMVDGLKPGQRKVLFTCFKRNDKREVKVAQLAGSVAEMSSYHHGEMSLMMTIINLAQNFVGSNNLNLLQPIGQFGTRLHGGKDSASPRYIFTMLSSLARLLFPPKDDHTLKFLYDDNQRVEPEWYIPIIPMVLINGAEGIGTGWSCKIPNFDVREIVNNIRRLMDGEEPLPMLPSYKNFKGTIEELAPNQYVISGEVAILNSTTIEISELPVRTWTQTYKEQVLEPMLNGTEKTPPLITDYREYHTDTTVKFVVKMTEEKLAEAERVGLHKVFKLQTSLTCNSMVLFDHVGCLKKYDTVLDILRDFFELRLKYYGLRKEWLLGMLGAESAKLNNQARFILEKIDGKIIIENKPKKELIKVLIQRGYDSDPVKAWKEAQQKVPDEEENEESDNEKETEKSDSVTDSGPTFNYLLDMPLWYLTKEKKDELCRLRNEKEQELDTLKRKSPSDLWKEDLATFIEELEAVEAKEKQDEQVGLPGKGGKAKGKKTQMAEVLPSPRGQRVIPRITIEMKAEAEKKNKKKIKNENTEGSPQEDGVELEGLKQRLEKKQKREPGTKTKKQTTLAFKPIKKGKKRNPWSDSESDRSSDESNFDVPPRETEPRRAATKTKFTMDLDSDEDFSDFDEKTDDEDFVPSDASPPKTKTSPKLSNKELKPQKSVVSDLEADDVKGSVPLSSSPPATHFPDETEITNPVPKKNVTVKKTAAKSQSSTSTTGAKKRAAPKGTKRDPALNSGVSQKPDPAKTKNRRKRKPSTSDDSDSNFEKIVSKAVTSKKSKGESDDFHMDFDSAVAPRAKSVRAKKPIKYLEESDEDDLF

[4] = Growth inhibition of H-Ras transformed rat Rat2 cells; assay type: functional
J82 = assay: Growth inhibition of H-Ras expressing human J82 cells; assay type: functional
SGC-7901 = assay: Cytotoxicity against human SGC7901 cells; assay type: functional, cell-based
P388 [5] = assay: Cytotoxicity against mouse P388 cells; assay type: functional, cell-based
Bel-7402 = assay: Cytotoxicity against human Bel7402 cells; assay type: functional, cell-based
[6] = system: Lewis lung carcinoma cell line; assay: Antitumor activity against mouse LLC cells allografted in C57B/6 mouse assessed as inhibition of tumor metastasis at 28 mg/kg relative to control; assay type: functional; parameters: scale not given: the % may be the effect or the level left
[7] = system: Lewis lung carcinoma cell line; assay: Antitumor activity against mouse LLC cells allografted in C57B/6 mouse assessed as tumor growth inhibition at 28 mg/kg relative to control; assay type: functional; settings: read-out: TGI
DNA topoisomerase 1 [8] = molecular target: T2, DNA topoisomerase 1 (Homo sapiens, UniProt P11387); assay: Inhibition of topoisomerase 1 in human HuH7 cells; assay type: cell-based, Huh-7
T2 sequence (P11387 whole entry): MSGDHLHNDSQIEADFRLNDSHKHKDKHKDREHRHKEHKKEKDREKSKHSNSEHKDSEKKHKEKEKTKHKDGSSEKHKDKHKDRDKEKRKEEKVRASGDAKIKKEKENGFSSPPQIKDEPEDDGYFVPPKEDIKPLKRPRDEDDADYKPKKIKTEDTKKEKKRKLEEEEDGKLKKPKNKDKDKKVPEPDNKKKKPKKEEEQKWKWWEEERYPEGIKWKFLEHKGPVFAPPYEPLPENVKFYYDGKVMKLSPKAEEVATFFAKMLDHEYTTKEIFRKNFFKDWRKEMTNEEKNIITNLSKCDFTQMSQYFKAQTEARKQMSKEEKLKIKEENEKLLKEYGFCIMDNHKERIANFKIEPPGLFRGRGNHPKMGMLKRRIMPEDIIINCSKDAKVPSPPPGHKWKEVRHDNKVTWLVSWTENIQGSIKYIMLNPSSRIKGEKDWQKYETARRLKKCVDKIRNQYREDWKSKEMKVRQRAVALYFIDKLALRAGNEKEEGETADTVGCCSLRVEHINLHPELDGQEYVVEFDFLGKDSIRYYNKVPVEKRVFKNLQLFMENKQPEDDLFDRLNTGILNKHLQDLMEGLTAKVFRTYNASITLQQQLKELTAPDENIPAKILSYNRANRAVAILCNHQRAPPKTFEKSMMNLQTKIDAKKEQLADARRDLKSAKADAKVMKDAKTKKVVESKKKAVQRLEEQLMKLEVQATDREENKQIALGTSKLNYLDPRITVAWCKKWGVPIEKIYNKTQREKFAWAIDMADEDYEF

[9] = molecular target: T1, DNA topoisomerase 2-alpha; assay: Inhibition of topoisomerase 2a in human HuH7 cells; assay type: cell-based, Huh-7
[10] = system: Lewis lung carcinoma cell line; assay: Antitumor activity against mouse LLC cells allografted in mouse assessed as reduction in tumor size at 5 mg/kg, ip qd for 2 weeks measured on day 14 relative to control; assay type: functional; settings: route intraperitoneal
[11] = system: Lewis lung carcinoma cell line; assay: Antitumor activity against mouse LLC cells allografted in mouse assessed as reduction in tumor size at 10 mg/kg, ip qd for 2 weeks measured on day 14 relative to control; assay type: functional; settings: route intraperitoneal
[12] = system: Lewis lung carcinoma cell line; assay: Antitumor activity against mouse LLC cells allografted in mouse assessed as reduction in tumor size at 2 mg/kg, ip qd for 2 weeks measured on day 20 relative to control; assay type: functional; settings: route intraperitoneal
[13] = system: Lewis lung carcinoma cell line; assay: Antitumor activity against mouse LLC cells allografted in mouse assessed as reduction in tumor size at 2 mg/kg, ip qd for 2 weeks measured on day 14 relative to control; assay type: functional; settings: route intraperitoneal
[14] = system: Lewis lung carcinoma cell line; assay: Antitumor activity against mouse LLC cells allografted in mouse assessed as reduction in tumor size at 20 mg/kg, ip qd for 2 weeks measured on day 20 relative to control; assay type: functional; settings: route intraperitoneal
[15] = system: Lewis lung carcinoma cell line; assay: Antitumor activity against mouse LLC cells allografted in mouse assessed as reduction in tumor size at 10 mg/kg, ip qd for 2 weeks measured on day 20 relative to control; assay type: functional; settings: route intraperitoneal
[16] = system: Lewis lung carcinoma cell line; assay: Antitumor activity against mouse LLC cells allografted in mouse assessed as reduction in tumor size at 5 mg/kg, ip qd for 2 weeks measured on day 20 relative to control; assay type: functional; settings: route intraperitoneal
[17] = system: Lewis lung carcinoma cell line; assay: Antitumor activity against mouse LLC cells allografted in mouse assessed as reduction in tumor size at 20 mg/kg, ip qd for 2 weeks measured on day 14 relative to control; assay type: functional; settings: route intraperitoneal
Huh-7 = assay: Cytotoxicity against human HuH7 cells; assay type: functional, cell-based
[18] = Cytotoxicity against human Hep3B cells; assay type: functional, cell-based, Hep 3B2
K562 = assay: Cytotoxicity against human K562 cells; assay type: functional, cell-based
HepG2 = assay: Cytotoxicity against human HepG2 cells; assay type: functional, cell-based
[19] = Cytotoxicity against mouse Meth-A cells; assay type: functional, cell-based
DNA topoisomerase 1 [20] = molecular target: T2, DNA topoisomerase 1; assay: Inhibition of topoisomerase 1
[21] = Cytotoxicity against mouse LLC cells; assay type: functional, cell-based; settings: Lewis lung carcinoma
T47D = assay: Cytotoxicity against human T47D cells; assay type: functional, cell-based
CCRF S-180 = assay: Cytotoxicity against mouse S180 cells; assay type: functional, cell-based
L1210 = assay: Cytotoxicity against mouse L1210 cells; assay type: functional, cell-based
COLO 205 = assay: Cytotoxicity against human COLO205 cells; assay type: functional, cell-based
P388 [22] = assay: Antitumor activity against mouse P388 cells allografted in CDF1 mouse assessed as increase in survival rate at 10 mg/kg; assay type: functional
P388 [23] = assay: Antiproliferative activity against mouse P388 cells; assay type: functional, cell-based
P388 [24] = assay: Antitumor activity against mouse P388 cells allografted in CDF1 mouse assessed as increase in survival rate at 3 mg/kg; assay type: functional
HL-60 = assay: Cytotoxicity against human HL60 cells; assay type: functional, cell-based
Mus musculus = species on record: Mus musculus; assay: Inhibition of TPA-induced tumor progression in mouse skin at 0.2 umol measured at week 20; assay type: functional
A549 = assay: Cytotoxicity against human A549 cells; assay type: functional, cell-based

SMILES: C=C(CC[C@@H](C(=O)O)[C@H]1[C@H](O)C[C@@]2(C)C3=CC[C@H]4C(C)(CO)C(=O)CC[C@]4(C)C3=CC[C@]12C)C(C)C (some centres not stated)
IC50 (DU-145): 49.7 µM

IC50 [1]: 41.9 µM
SMILES: C/C(=C\CC[C@@H](C)[C@H]1C[C@H](O)[C@@]2(C)C3=CC[C@H]4C(C)(C)C(=O)CC[C@]4(C)C3=CC[C@]12C)CO
IC50 (HeLa): 1 µM

SMILES: CCO[C@@H]1C[C@H]2C(C)(C)[C@H](OC(C)=O)CC[C@]2(C)C2=C1[C@]1(C)[C@@H](OC(C)=O)C[C@H]([C@H](C)C(C/C=C(\C)C(=O)O)OC(C)=O)[C@@]1(C)CC2 (some centres not stated)
IC50 [2]: 46.5 µM
IC50 (HeLa): 59.1 µM

IC50 [3]: 4.6 µM
SMILES: C=C(CCC(C(=O)O)[C@H]1CC[C@@]2(C)C3=CC[C@H]4C(C)(C)C(=O)CC[C@]4(C)C3=CC[C@]12C)C(C)C (some centres not stated) [DEHYDROEBURICONIC ACID]
IC50 (NUGC-3): 38.4 µM

SMILES: CC(C)=CCC[C@@H](C(=O)O)[C@H]1CC[C@@]2(C)C3=CC[C@H]4C(C)(C)[C@@H](O)CC[C@]4(C)C3=CC[C@]12C [DEHYDROTRAMETENOLIC ACID]
GI50 [4]: 39.2 µM
GI50 (J82): 26.7 µM

IC50 [3]: 37.5 µM
SMILES: CC(C)=CCCC(C(=O)O)[C@H]1CC[C@@]2(C)C3=CC[C@H]4C(C)(C)C(=O)CC[C@]4(C)C3=CC[C@]12C (some centres not stated) [DEHYDROTRAMETENONIC ACID]
IC50 (NUGC-3): 63.6 µM

SMILES: COc1cc([C@@H]2c3cc4c(cc3[C@@H](O[C@@H]3O[C@@H]5CO[C@@H](C)O[C@H]5[C@H](O)[C@H]3O)[C@H]3COC(=O)[C@H]23)OCO4)cc(OC)c1O [ETOPOSIDE]
IC50 (SGC-7901): 0.08 µM
IC50 (P388 [5]): 0.08 µM
IC50 (Bel-7402): 0.08 µM
IC50 (HeLa): 0.08 µM

SMILES: C/C(=C/CC[C@@H](C)[C@H]1CC[C@@]2(C)C3=C(CC[C@]12C)[C@@]1(C)CCC(=O)C(C)(C)[C@@H]1CC3=O)C(=O)O [GANODERIC ACID DM]
IC50 (HeLa): 101 µM
IC50 [1]: 10.6 µM

SMILES: C/C(=C/CC[C@@H](C)[C@H]1C[C@H](O)[C@@]2(C)C3=CC[C@H]4C(C)(C)C(=O)CC[C@]4(C)C3=CC[C@]12C)C(=O)O [GANODERIC ACID TR]
IC50 [1]: 8.5 µM

SMILES: CC(=O)O[C@@H](C/C=C(\C)C(=O)O)[C@@H](C)[C@H]1C[C@H](OC(C)=O)[C@@]2(C)C3=CC[C@H]4C(C)(C)[C@H](OC(C)=O)CC[C@]4(C)C3=CC[C@]12C [GANODERIC ACID T]
Activity [6]: 78%
inhibition in vivo at 28 mg/kg [7]: 63%

IC50 (DNA topoisomerase 1 [8]): 55 µM
IC50 [9]: 25 µM
SMILES: CC(=O)O[C@H]1C[C@H]([C@H](C)CC/C=C(\C)C(=O)O)[C@@]2(C)CC=C3C(=CC[C@H]4C(C)(C)[C@@H](O)CC[C@]34C)[C@]12C [GANODERIC ACID X]

SMILES: C[C@H](CCC=C(CO)CO)[C@H]1CC[C@@]2(C)C3=CC[C@H]4C(C)(C)C(=O)CC[C@]4(C)C3=CC[C@]12C [GANODERIOL F]
T/C [10]: 64%
T/C [11]: 54%
IC50 (HeLa): 5 µM
T/C [12]: 45%
T/C [13]: 38%
T/C [14]: 54%
T/C [15]: 63%
T/C [16]: 79%
T/C [17]: 48%
IC50 (Huh-7): 8.5 µM
IC50 [18]: 25.3 µM
IC50 (K562): 4 µM
IC50 (HepG2): 17 µM
IC50 [19]: 10.1 µg/mL (≈ 22.2 µM)
IC50 (DNA topoisomerase 1 [20]): 106 µM
IC50 [3]: 17 µM
IC50 [21]: 2 µg/mL (≈ 4.4 µM)
IC50 (T47D): 3 µg/mL (≈ 6.6 µM)
IC50 (CCRF S-180): 7.1 µg/mL (≈ 15.6 µM)

SMILES: CC[C@@]1(O)C(=O)OCc2c1cc1n(c2=O)Cc2cc3cc(O)ccc3nc2-1 [HYDROXYCAMPTOTHECIN]
IC50 [2]: 21.3 µM
IC50 (HeLa): 29.5 µM

SMILES: CC(C)=CC[C@@H](O)[C@@H](C)[C@H]1CC[C@@]2(C)C3=C(CC[C@]12C)[C@@]1(C)CC[C@H](O)C(C)(C)[C@@H]1CC3 [INOTODIOL]
IC50 (L1210): 110 µM
IC50 (COLO 205): 171 µM
survival at 10 mg/kg (P388 [22]): 20.8%
IC50 (P388 [23]): 13.9 µM
survival at 3 mg/kg (P388 [24]): 9.7%
IC50 (HL-60): 25 µM

SMILES: C=C(CC[C@@H](C(=O)O)[C@H]1[C@H](O)C[C@@]2(C)C3=CC[C@H]4C(C)(C)C(=O)CC[C@]4(C)C3=CC[C@]12C)C(C)C [POLYPORENIC ACID B]
inhibition (INH) (Mus musculus): 83%
IC50 (A549): 19.8 µM

SMILES: C=C(C)[C@@H]1CC=C2C(=CC[C@]3(C)[C@@H]([C@@H](CCC=C(C)C)C(=O)O)[C@H](O)C[C@@]23C)[C@@]1(C)CCC(=O)O [PORICOIC ACID B]
inhibition (INH) (Mus musculus): 68%
